Experimental data from patent US7049331B2, “1,2,4-thiadiazole derivatives as melanocortin receptor modulators” (Ortho-McNeil Pharmaceutical, Inc., priority 2001, dated 2006).
Read-outs that look alike come from different tables or passages of the source.

Legend:
[1] = target: T1, melanocortin MC-4 receptor (Homo sapiens, UniProt P32245); test: MC-4 receptor binding (Filtration); details: Filtration; for IC50: read-out: IC50 MC-4 (μM) (Filtration)
T1 construct: purchased Receptor Biology Inc
Experimental: The procedures described above for the melanocortin MC-4 receptor were repeated for the melanocortin MC-3 receptor. Following the procedures described, representative compounds of the present invention were tested for binding in the MC-4 and/or MC-3 assay, as listed in Table 4.

Cortical Cells = test: Neurite Cell Outgrowth Assay, cortical cells; format: cell-based; details: Rattus norvegicus; 50 nM; percent change over the vehicle response; NA = no change/not active
Excerpt: (§1) Dissociated hippocampal and cortical cell cultures were established from embryonic day 18 rat fetuses as described by Mattson, M. P., Barger, S. W., Begley, J, and Mark, R. J., Methods Cell Biol., 1994, 46:[…]. Briefly, fetuses were removed via cesarean section from pregnant moms (Sprague-Dawley) and anesthetized with halothane according to the AVMA Panel on Euthanasia. Pups were decapitated and the brains were removed and placed in HEPES-buffered Hank's Balanced Salt solution (HBSS; Gibco). The hippocampi and cortices were dissected out and pooled according to tissue-type. Tissue was trypsinized for 15 min (1 mg/ml trypsin-HBSS; Worthington), rinsed with fresh HBSS, incubated in trypsin inhibitor (1 mg/ml; Sigma) for 5 min, rinsed again with fresh HBSS and then triturated in 1 ml fresh HBSS with a fire-polished glass pipette. Dissociated cells were seeded at 30,000 cells/well onto poly-D-lysine coated 96-well plates (Collaborative BioScience). Each well contained 100 μl of Eagle's Minimal Essential Media (MEM; Gibco) supplemented with 26 mM NaHCO3 (Sigma), 56 mM glucose (Sigma), 15 mM KCl (Sigma), 1 mM sodium pyruvate (Sigma), 1.1 mM L-glutamine (Sigma), 10% (v/v) heat-inactivated fetal bovine serum (Hyclone), and 0.001% gentamicin sulfate (Sigma) (pH 7.4). Cells were allowed to attach for 24 h in a humidified 37° C. 5% CO2 incubator before experimental treatment. The culture media was aspirated and exchanged with fresh media every 3 days.
(§2) Twenty-four hours after plating, cultures were treated with vehicle (PBS+0.1% BSA), alpha-melanocyte stimulating hormone (α-MSH) or test compound (diluted in DPBS). Each treatment condition was run in quadruplicate. On the third day in culture, the media was aspirated off and replaced with fresh media and test compound. At one week in culture, the cells were fixed with 10% phosphate-buffered formalin for 15 min, then rinsed with DPBS (Sigma) and placed in blocking serum for 30 min (horse serum; 1:50 dilution in DPBS; Vector Labs). The cultures were rinsed again with DPBS and then incubated in primary antibody for 2 hr (microtubule-associated protein-2 (MAP-2) is a selective marker for dendritic processes; anti-mouse monoclonal (Chemicon); 1:1000 dilution of MAP-2 in antibody diluent (Zymed)). Negative control wells were incubated in antibody diluent alone. Background signal was determined by blank wells (cell-free) incubated with or without antibody. Cultures were rinsed again with DPBS and then placed in fluorescein for 1 hr (FITC; anti-mouse IgG; rat adsorbed; 1:50 dilution in DPBS; Vector Labs). Cultures were rinsed a final time with DPBS and the plates were then read on a Cytofluor 4000 fluorescence plate reader. Neurite outgrowth was expressed as percent change from control (vehicle).
(§3) The data are expressed as percent change over the vehicle response. All compounds were screened at 50 nM. The abbreviation NA indicates no change/not active; the abbreviation ND indicates a compound not tested/response not determined.

[2] = target: T1, melanocortin MC-4 receptor; test: Melanocortin MC-4 Receptor Binding Assay (SPA)
Experimental: Melanocortin MC-4 Receptor Binding Assay Melanocortin [MC-4]-membrane [purchased from Receptor Biology Inc] was coupled to wheat germ agglutinin coated polyvinyl toluene-Scintillation Proximity Assay beads [purchased from Amersham Pharmacia Inc.] for 30 min at 25° C. Into each well of a 96-well Opti plate [purchased from Packard, Calif.], 2.5 μg of membrane and 0.25 mg of beads were mixed in a volume of 100 μL media. […] Test compounds (1.5 μL) at 1 mM in 30% DMSO-50 mM HEPES, pH 7.4 buffer was added to separate wells on the plate. Radioactive ligand ^125I-NDP-melanocyte stimulating hormone [NEN, 2000Ci/mmol] was added to each well (48.5 μL per well, 40 pM final concentration). The plate was then sealed and let stand for 16 hr at 25° C. NDP-Melanocyte stimulating hormone peptide and α-melanocyte stimulating hormone peptide [purchased from Palomar Research Inc, 1 μM] were used as reference inhibitor compounds to define non-specific binding (N). Total binding (T) was defined using 30% DMSO-50 mM HEPES, pH 7.4 buffer. Bound radioactivity for each well (Y), measured at counts per minute (cpm) was measured in a TopCount [Packard, Calif.]. Percent inhibition was calculated as: […] The procedures described above for the melanocortin MC-4 receptor were repeated for the melanocortin MC-3 receptor. Following the procedures described, representative compounds of the present invention were tested for binding in the MC-4 and/or MC-3 assay, as listed in Table 4.

Hippocampal Cells = test: Neurite Cell Outgrowth Assay, hippocampal cells; format: cell-based; details: Rattus norvegicus; 50 nM; percent change over the vehicle response; NA = no change/not active
Excerpt: as §1, §2, §3

Food-Deprived Rats = test: Rodent Feeding: Food Intake in Food-Deprived Rats (MC-4); format: in vivo, rat; details: Rattus norvegicus
Excerpt: Rodent Feeding: Food Intake in Food-Deprived Rats (MC-4)
Male Long-Evans rats (180–200 grams) were housed individually and maintained on a once-a-day feeding schedule (i.e.10 a.m. until 4 p.m.) for five days following quarantine to allow the animals to acclimate to feeding on powdered chow (#5002 PMI Certified Rodent Meal) during the allotted time. The chow was made available in an open jar, anchored in the cage by a wire, with a metal follower covering the food to minimize spillage. Water was available ad-libitum.
Animals were fasted for 18 hours prior to testing. At the end of the fasting period, animals were administered either a test compound or vehicle. Vehicle and test compound were administered either orally (5 mL/kg) 60 minutes prior to the experiment, subcutaneously (1 mL/kg) 30 minutes prior to the experiment, or intraperitoneally (1 mL/kg) 30 minutes prior to the experiment. Test compounds were administered orally as a suspension in aqueous 0.5% methylcellulose-0.4% Tween 80, or intraperitoneally as a solution or suspension in PEG 200; compound concentrations typically ranged from 1 mg/kg to 100 mg/kg, preferably from 10–30 mg/kg. Food intake was measured at 2, 4, and 6 hours after administration by weighing the special jar containing the food before the experiment and at the specified times. Upon completion of the experiment, all animals were given a one-week washout period before re-testing.
Following the procedure described above, select compounds of the present invention were tested to measure the effect on food intake in fasted rats, as listed in Table 5 and 6.

[3] = ip, 2 h, ip, read-out: Change in Food Intake 0–2 hrs (%)
[4] = ip, 6 h, ip, read-out: Change in Food Intake 2–6 hrs (%)
[5] = po, 2 h, po, read-out: Change in Food Intake 0–2 hrs (%)
[6] = po, 6 h, po, read-out: Change in Food Intake 2–6 hrs (%)

T1 sequence (P32245 whole entry): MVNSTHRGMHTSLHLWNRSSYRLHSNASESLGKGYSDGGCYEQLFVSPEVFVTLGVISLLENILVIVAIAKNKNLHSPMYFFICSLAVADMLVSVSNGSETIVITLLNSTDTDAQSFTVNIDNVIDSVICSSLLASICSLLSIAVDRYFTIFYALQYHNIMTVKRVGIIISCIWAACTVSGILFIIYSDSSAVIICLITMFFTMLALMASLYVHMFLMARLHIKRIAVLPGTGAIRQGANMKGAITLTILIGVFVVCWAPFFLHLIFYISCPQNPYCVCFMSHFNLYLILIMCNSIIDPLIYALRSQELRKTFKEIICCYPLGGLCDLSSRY

| Structure (SMILES) | IC50 [1] | activation at 0.05 µM (Cortical Cells) | IC50 [2] | activation at 0.05 µM (Hippocampal Cells) | also measured |
| --- | --- | --- | --- | --- | --- |
| Cc1ccc(-[n+]2sc(Nc3ccccc3)nc2-c2ccccc2)cc1 [Compound 2] | 1.5 µM | 18% | 234 nM | 18% |  |
| COc1ccccc1Nc1nc(-c2ccccc2)[n+](-c2ccc(C)cc2)s1 [Compound 3] | 0.7 µM | 23% | 159 nM | 17% |  |
| Cc1ccc(Nc2nc(-c3ccccc3)[n+](-c3ccc(C)cc3)s2)cc1 [Compound 4] |  | 21% | 297 nM | 20% | IC50 MC-4 (μM) (Filtration) [1]: inactive |
| Cc1ccc(-[n+]2sc(Nc3ccccc3C)nc2-c2ccccc2)cc1 [Compound 5] | 1.3 µM | 9% | 207 nM | 28% |  |
| Cc1ccc(-[n+]2sc(Nc3ccc(Cl)cc3)nc2-c2ccccc2)cc1 [Compound 6] | 2.5 µM | 24% | 293 nM | 23% |  |
| Cc1ccc(-[n+]2sc(Nc3ccccc3Cl)nc2-c2ccccc2)cc1 [Compound 7] | 2.2 µM | 11% | 218 nM |  |  |
| Cc1ccccc1-[n+]1sc(Nc2ccccc2)nc1-c1ccccc1 [Compound 8] | 1.4 µM | 12% | 201 nM |  |  |
| COc1ccc(Nc2nc(-c3ccccc3)[n+](-c3ccccc3C)s2)cc1 [Compound 9] | 1.1 µM |  | 217 nM |  |  |
| COc1ccccc1Nc1nc(-c2ccccc2)[n+](-c2ccccc2C)s1 [Compound 10] | 2.3 µM | 11% | 130 nM | 7% |  |
| Cc1ccc(Nc2nc(-c3ccccc3)[n+](-c3ccccc3C)s2)cc1 [Compound 11] | 2.4 µM | 10% | 243 nM | 9% |  |
| Cc1ccccc1Nc1nc(-c2ccccc2)[n+](-c2ccccc2C)s1 [Compound 12] |  | 20% |  | 28% | IC50 MC-4 (μM) (Filtration) [1]: insoluble; IC50 MC-4 (nM) (SPA) [2]: insoluble |
| Cc1ccccc1-[n+]1sc(Nc2ccc(Cl)cc2)nc1-c1ccccc1 [Compound 13] | 3.4 µM | 32% | 347 nM | 29% |  |
| Cc1ccccc1-[n+]1sc(Nc2ccccc2Cl)nc1-c1ccccc1 [Compound 14] | 5.6 µM | 19% | 234 nM | 30% |  |
| Clc1ccc(-[n+]2sc(Nc3ccccc3)nc2-c2ccccc2)cc1 [Compound 15] | 4.5 µM | 31% | 482 nM | 18% |  |
| Cc1ccccc1Nc1nc(-c2ccccc2)[n+](-c2ccc(Cl)cc2)s1 [Compound 19] | 3.9 µM |  | 460 nM | 22% |  |
| Clc1ccc(Nc2nc(-c3ccccc3)[n+](-c3ccc(Cl)cc3)s2)cc1 [Compound 20] | 3.5 µM |  | 636 nM | 17% |  |
| Cc1ccccc1Nc1nc(-c2ccccc2)[n+](-c2ccccc2)s1 [Compound 26] |  | 47% | 63 nM | 16% | change in vivo at 10 mg/kg (Food-Deprived Rats; [3]): -12.7%; change in vivo at 10 mg/kg (Food-Deprived Rats; [4]): -32.3% |
| Clc1ccc(Nc2nc(-c3ccccc3)[n+](-c3ccccc3)s2)cc1 [Compound 27] |  | 52% | 89 nM | 17% | change in vivo at 30 mg/kg (Food-Deprived Rats; [3]): -27.4%; change in vivo at 30 mg/kg (Food-Deprived Rats; [4]): -29.1% |
| COc1ccc(Nc2nc(-c3ccccc3)[n+](-c3ccccc3OC)s2)cc1 [Compound 29] |  | 8% | 48 nM |  | change in vivo at 10 mg/kg (Food-Deprived Rats; [3]): -62.3%; change in vivo at 10 mg/kg (Food-Deprived Rats; [4]): -70.7%; change in vivo at 30 mg/kg (Food-Deprived Rats; [5]): -26.3%; change in vivo at 30 mg/kg (Food-Deprived Rats; [6]): -3.7% |
| COc1ccccc1-[n+]1sc(Nc2ccccc2C)nc1-c1ccccc1 [Compound 32] |  | 6% | 48 nM |  | change in vivo at 10 mg/kg (Food-Deprived Rats; [3]): -29.6%; change in vivo at 10 mg/kg (Food-Deprived Rats; [4]): -60.2%; change in vivo at 1 mg/kg (Food-Deprived Rats; [5]): -13.8%; change in vivo at 3 mg/kg (Food-Deprived Rats; [5]): -11.5%; change in vivo at 10 mg/kg (Food-Deprived Rats; [5]): -20%; change in vivo at 30 mg/kg (Food-Deprived Rats; [5]): -12.5%; change in vivo at 1 mg/kg (Food-Deprived Rats; [6]): 26%; change in vivo at 3 mg/kg (Food-Deprived Rats; [6]): 31.2%; change in vivo at 10 mg/kg (Food-Deprived Rats; [6]): -1%; change in vivo at 30 mg/kg (Food-Deprived Rats; [6]): -15% |
| COc1ccccc1-[n+]1sc(Nc2ccccc2Cl)nc1-c1ccccc1 [Compound 34] |  | 22% | 46 nM |  | change in vivo at 10 mg/kg (Food-Deprived Rats; [3]): -38%; change in vivo at 10 mg/kg (Food-Deprived Rats; [4]): -72%; change in vivo at 10 mg/kg (Food-Deprived Rats; [5]): -1.3%; change in vivo at 30 mg/kg (Food-Deprived Rats; [5]): -7.5%; change in vivo at 10 mg/kg (Food-Deprived Rats; [6]): -6%; change in vivo at 30 mg/kg (Food-Deprived Rats; [6]): 2% |
| Clc1ccccc1Nc1nc(-c2ccccc2)[n+](-c2ccccc2)s1 [Compound 49] |  | 51% | 96 nM | 16% | change in vivo at 30 mg/kg (Food-Deprived Rats; [3]): -20.6%; change in vivo at 30 mg/kg (Food-Deprived Rats; [4]): -21.2% |
